From US20250296949A1, “HIGH PURITY NON-ANIMAL DERIVED UDCA” (priority 2021, published 2025)

Assay: DVS mass change of crystalline 3,7-DKCA salts
Assay type: physicochemical

Going from CC(C)NC(C)C.C[C@H](CCC(=O)O)[C@H]1CC[C@H]2[C@@H]3C(=O)C[C@@H]4CC(=O)CC[C@]4(C)[C@H]3CC[C@]12C [Diisopropylamine salt, diisopropylamine salt of 3,7-DKCA] to CC(C)(C)N.C[C@H](CCC(=O)O)[C@H]1CC[C@H]2[C@@H]3C(=O)C[C@@H]4CC(=O)CC[C@]4(C)[C@H]3CC[C@]12C [tert-Butylamine salt, tert-butylamine salt of 3,7-DKCA], the “DVS mass change 5-95% RH (wt. %)” value rises from 2.53 wt. % to 10.89 wt. %.

In the case of C[C@H](CCC(=O)O)[C@H]1CC[C@H]2[C@@H]3C(=O)C[C@@H]4CC(=O)CC[C@]4(C)[C@H]3CC[C@]12C.NCCN [Ethylenediamine salt, ethylenediamine salt of 3,7-DKCA], the “DVS mass change 5-95% RH (wt. %)” value is reported as 19.60 wt. %.
